Each block holds one compound with its values, some of them ahead of it.
Tests used:
Experiment in all cases: competitive isoTOP-ABPP
Type in all cases: binding
CUL2 Cullin-2 = target: T1, CUL2 Cullin-2 (Homo sapiens, UniProt Q13617); details: for isoTOP-ABPP ratio (R) at liganded lysine Q13617_K489 / isoTOP-ABPP reactivity ratio at lysine Q13617_K489: 50 uM, in vitro; for isoTOP-ABPP ratio (R) at liganded lysine Q13617_K489: sol, 231; for isoTOP-ABPP reactivity ratio at lysine Q13617_K489: 231 sol
T1 construct: isoTOP-ABPP experiments performed in cell lysates (in vitro); endogenous in cells; host or cells: soluble proteome of human cancer cell lines (MDA-MB-231, Ramos, Jurkat)
Procedure: (§1) In vitro covalent fragment treatment for isoTOP-ABPP. All compounds were made up as solutions in DMSO (100×) and were used at a final concentration of 50 μM for activated esters and 100 μM for guanidinylating agents. For each profiling sample, 0.5 ml of lysate was treated with 5 μl of the 100× compound stock solution or 5 μl of DMSO. Samples were treated with activated esters for
(§2) STP-alkyne labeling and click chemistry. For concentration-dependent reactivity measurements by isoTOP-ABPP, 0.5 ml proteome aliquots were treated at ambient temperature with 1 mM STP-alkyne 1 (5 μl of 100 mM stock in DMSO) and 0.1 mM STP alkyne 1 (5 μl of 10 mM stock in DMSO), respectively. For competitive isoTOP-ABPP, after in vitro fragment treatment (detailed above), the samples were labeled for 1 h at ambient temperature with 0.1 mM STP-alkyne 1 (5 μl of 10 mM stock in DMSO). Samples were conjugated by copper-mediated azide-alkyne cycloaddition (CuAAC) to either the light (1 mM STP-alkyne or fragment treated) or heavy (0.1 mM STP-alkyne or DMSO treated) TEV tags (10 μl of 5 mM stocks in DMSO, final concentration=100 μM) using tris(2-carboxyethyl)phosphine hydrochloride
(§3) R value calculation and processing. The ratios of light and heavy MS1 peaks for each unique peptide were quantified with a CIMAGE software using default parameters (3 MS1 acquisitions per peak and signal to noise threshold set to 2.5). For reactivity measurements by isoTOP-ABPP, the R value was calculated from the ratio of MS1 peak areas, comparing the 1 mM STP alkyne sample (light TEV tag) with the 0.1 mM STP alkyne sample (heavy TEV tag). For competitive isoTOP-ABPP, the R value was calculated from the ratio of MS1 peak areas, comparing the DMSO treated sample (heavy TEV tag) with the compound treated sample (light TEV tag). […] Ratios for unique peptide entries are calculated for each experiment; overlapping peptides with the same modified lysine (for example, different charge states, MudPIT chromatographic steps or tryptic termini) are grouped together and the median ratio is reported as the final ratio (R). The peptide ratios reported by CIMAGE were further filtered to ensure the removal or correction of low-quality ratios in each individual data set. The quality filters applied were the following: removal of half tryptic peptides; for ratios with high standard deviations from the median (90% of the median or above) the lowest ratio was taken instead of the median; removal of peptides with R=20 and only a single MS2 event triggered during the elution of the parent ion; manual annotation of all the peptides with ratios of 20, removing any peptides with low quality elution profiles that remained after the previous curation steps (only done for competitive isoTOP-ABPP).
(§4) Cross-data processing for fragment screening. For compound treated samples, biological replicates of the same condition were averaged, if the standard deviation was below 60% of the mean; otherwise, for lysines with at least one R value <4 for a particular compound, the lowest value of the ratio set was taken. For lysines, where all R values for a particular compound were ≥4, the average was reported. For peptides containing several possible modified lysines, the lysine with the highest number of quantification events was used for analysis and the remaining, redundant peptides were reported as alternative modification sites. Peptides included in the aggregate dataset (those used for further bioinformatics and statistical analyses) were required to have been quantified in 2 experiments for competitive isoTOP-ABPP. Lysines were categorized as liganded, if they had at least one ratio R≥4 (hit fragments). For liganded lysines with R=20 for all liganding events, lysines were required to have been quantified with R=20 in two separate experiments and were further required to have been quantified with R<20 in one additional experiment.

[1] = target: T2, POLR2L DNA-directed RNA polymerases I, II, and III subunit (Homo sapiens, UniProt P62875); details: for isoTOP-ABPP ratio (R) at liganded lysine P62875_K67 / isoTOP-ABPP reactivity ratio at lysine P62875_K67: 50 uM, in vitro; for isoTOP-ABPP ratio (R) at liganded lysine P62875_K67: sol, 231; for isoTOP-ABPP reactivity ratio at lysine P62875_K67: 231 sol
T2 construct: isoTOP-ABPP experiments performed in cell lysates (in vitro); endogenous in cells; host or cells: soluble proteome of human cancer cell lines (MDA-MB-231, Ramos, Jurkat)
Procedure: as §1, §2, §3, §4

[2] = target: T3, UCHL5 Ubiquitin carboxyl-terminal hydrolase isozyme L5 (Homo sapiens, UniProt Q9Y5K5); details: for isoTOP-ABPP ratio (R) at liganded lysine Q9Y5K5_K323 / isoTOP-ABPP reactivity ratio at lysine Q9Y5K5_K323: 50 uM, in vitro; for isoTOP-ABPP ratio (R) at liganded lysine Q9Y5K5_K323: sol, 231; for isoTOP-ABPP reactivity ratio at lysine Q9Y5K5_K323: 231 sol
T3 construct: endogenous in cells; host or cells: MDA-MB-231 (soluble fraction of lysate)
T3 sequence (Q9Y5K5 1-329): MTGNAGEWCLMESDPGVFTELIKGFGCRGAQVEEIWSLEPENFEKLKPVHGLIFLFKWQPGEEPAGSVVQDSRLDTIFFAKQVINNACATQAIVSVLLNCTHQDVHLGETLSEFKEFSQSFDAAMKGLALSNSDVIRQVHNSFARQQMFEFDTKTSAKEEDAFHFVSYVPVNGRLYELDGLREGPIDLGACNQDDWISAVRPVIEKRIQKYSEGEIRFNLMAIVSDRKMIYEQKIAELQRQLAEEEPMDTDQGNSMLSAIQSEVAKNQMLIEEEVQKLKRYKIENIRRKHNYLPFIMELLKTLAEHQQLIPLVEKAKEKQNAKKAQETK
Procedure: as §1, §2, §3, §4

[3] = target: T4, PFKP 6-phosphofructokinase type C (Homo sapiens, UniProt Q01813); parameters: key to isoTOP-ABPP reactivity ratio at lysine Q01813_K688: R = MS1 peak area ratio, DMSO (heavy) / compound-treated (light); details: for isoTOP-ABPP ratio (R) at liganded lysine Q01813_K688 / isoTOP-ABPP reactivity ratio at lysine Q01813_K688: 50 uM, in vitro; for isoTOP-ABPP ratio (R) at liganded lysine Q01813_K688: sol, 231; for isoTOP-ABPP reactivity ratio at lysine Q01813_K688: 231 sol
T4 construct: isoTOP-ABPP experiments performed in cell lysates (in vitro); endogenous in cells
T4 sequence (Q01813 1-784): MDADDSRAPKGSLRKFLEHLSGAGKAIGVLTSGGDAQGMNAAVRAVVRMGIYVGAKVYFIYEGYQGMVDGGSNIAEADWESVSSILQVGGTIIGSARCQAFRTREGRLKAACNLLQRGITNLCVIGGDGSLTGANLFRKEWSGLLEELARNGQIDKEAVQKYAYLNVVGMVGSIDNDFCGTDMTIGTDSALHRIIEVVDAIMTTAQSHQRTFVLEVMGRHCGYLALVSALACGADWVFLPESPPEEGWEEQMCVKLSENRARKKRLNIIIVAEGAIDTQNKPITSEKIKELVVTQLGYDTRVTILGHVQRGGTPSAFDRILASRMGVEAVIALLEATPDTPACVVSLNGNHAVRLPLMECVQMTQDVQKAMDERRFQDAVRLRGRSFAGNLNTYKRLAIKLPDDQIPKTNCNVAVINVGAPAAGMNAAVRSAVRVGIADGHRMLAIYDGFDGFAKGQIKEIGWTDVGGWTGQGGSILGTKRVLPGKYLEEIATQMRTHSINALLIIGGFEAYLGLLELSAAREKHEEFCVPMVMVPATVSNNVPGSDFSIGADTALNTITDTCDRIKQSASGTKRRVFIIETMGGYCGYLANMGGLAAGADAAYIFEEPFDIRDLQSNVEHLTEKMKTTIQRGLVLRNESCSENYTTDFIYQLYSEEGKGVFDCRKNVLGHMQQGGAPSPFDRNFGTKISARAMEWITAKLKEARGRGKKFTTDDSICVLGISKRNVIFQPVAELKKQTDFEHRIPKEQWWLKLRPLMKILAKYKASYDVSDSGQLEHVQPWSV
Procedure: as §1, §2, §3, §4

[4] = target: T5, DYNC1H1 Cytoplasmic dynein 1 heavy chain 1 (Homo sapiens, UniProt Q14204); details: 50 uM, in vitro; for isoTOP-ABPP reactivity ratio at lysine Q14204_K1649: 231 sol
T5 construct: isoTOP-ABPP experiments performed in cell lysates (in vitro); endogenous in cells; host or cells: soluble proteome of human cancer cell lines (MDA-MB-231, Ramos, Jurkat)
Procedure: as §1, §2, §3, §4

T5 sequence (Q14204 whole entry): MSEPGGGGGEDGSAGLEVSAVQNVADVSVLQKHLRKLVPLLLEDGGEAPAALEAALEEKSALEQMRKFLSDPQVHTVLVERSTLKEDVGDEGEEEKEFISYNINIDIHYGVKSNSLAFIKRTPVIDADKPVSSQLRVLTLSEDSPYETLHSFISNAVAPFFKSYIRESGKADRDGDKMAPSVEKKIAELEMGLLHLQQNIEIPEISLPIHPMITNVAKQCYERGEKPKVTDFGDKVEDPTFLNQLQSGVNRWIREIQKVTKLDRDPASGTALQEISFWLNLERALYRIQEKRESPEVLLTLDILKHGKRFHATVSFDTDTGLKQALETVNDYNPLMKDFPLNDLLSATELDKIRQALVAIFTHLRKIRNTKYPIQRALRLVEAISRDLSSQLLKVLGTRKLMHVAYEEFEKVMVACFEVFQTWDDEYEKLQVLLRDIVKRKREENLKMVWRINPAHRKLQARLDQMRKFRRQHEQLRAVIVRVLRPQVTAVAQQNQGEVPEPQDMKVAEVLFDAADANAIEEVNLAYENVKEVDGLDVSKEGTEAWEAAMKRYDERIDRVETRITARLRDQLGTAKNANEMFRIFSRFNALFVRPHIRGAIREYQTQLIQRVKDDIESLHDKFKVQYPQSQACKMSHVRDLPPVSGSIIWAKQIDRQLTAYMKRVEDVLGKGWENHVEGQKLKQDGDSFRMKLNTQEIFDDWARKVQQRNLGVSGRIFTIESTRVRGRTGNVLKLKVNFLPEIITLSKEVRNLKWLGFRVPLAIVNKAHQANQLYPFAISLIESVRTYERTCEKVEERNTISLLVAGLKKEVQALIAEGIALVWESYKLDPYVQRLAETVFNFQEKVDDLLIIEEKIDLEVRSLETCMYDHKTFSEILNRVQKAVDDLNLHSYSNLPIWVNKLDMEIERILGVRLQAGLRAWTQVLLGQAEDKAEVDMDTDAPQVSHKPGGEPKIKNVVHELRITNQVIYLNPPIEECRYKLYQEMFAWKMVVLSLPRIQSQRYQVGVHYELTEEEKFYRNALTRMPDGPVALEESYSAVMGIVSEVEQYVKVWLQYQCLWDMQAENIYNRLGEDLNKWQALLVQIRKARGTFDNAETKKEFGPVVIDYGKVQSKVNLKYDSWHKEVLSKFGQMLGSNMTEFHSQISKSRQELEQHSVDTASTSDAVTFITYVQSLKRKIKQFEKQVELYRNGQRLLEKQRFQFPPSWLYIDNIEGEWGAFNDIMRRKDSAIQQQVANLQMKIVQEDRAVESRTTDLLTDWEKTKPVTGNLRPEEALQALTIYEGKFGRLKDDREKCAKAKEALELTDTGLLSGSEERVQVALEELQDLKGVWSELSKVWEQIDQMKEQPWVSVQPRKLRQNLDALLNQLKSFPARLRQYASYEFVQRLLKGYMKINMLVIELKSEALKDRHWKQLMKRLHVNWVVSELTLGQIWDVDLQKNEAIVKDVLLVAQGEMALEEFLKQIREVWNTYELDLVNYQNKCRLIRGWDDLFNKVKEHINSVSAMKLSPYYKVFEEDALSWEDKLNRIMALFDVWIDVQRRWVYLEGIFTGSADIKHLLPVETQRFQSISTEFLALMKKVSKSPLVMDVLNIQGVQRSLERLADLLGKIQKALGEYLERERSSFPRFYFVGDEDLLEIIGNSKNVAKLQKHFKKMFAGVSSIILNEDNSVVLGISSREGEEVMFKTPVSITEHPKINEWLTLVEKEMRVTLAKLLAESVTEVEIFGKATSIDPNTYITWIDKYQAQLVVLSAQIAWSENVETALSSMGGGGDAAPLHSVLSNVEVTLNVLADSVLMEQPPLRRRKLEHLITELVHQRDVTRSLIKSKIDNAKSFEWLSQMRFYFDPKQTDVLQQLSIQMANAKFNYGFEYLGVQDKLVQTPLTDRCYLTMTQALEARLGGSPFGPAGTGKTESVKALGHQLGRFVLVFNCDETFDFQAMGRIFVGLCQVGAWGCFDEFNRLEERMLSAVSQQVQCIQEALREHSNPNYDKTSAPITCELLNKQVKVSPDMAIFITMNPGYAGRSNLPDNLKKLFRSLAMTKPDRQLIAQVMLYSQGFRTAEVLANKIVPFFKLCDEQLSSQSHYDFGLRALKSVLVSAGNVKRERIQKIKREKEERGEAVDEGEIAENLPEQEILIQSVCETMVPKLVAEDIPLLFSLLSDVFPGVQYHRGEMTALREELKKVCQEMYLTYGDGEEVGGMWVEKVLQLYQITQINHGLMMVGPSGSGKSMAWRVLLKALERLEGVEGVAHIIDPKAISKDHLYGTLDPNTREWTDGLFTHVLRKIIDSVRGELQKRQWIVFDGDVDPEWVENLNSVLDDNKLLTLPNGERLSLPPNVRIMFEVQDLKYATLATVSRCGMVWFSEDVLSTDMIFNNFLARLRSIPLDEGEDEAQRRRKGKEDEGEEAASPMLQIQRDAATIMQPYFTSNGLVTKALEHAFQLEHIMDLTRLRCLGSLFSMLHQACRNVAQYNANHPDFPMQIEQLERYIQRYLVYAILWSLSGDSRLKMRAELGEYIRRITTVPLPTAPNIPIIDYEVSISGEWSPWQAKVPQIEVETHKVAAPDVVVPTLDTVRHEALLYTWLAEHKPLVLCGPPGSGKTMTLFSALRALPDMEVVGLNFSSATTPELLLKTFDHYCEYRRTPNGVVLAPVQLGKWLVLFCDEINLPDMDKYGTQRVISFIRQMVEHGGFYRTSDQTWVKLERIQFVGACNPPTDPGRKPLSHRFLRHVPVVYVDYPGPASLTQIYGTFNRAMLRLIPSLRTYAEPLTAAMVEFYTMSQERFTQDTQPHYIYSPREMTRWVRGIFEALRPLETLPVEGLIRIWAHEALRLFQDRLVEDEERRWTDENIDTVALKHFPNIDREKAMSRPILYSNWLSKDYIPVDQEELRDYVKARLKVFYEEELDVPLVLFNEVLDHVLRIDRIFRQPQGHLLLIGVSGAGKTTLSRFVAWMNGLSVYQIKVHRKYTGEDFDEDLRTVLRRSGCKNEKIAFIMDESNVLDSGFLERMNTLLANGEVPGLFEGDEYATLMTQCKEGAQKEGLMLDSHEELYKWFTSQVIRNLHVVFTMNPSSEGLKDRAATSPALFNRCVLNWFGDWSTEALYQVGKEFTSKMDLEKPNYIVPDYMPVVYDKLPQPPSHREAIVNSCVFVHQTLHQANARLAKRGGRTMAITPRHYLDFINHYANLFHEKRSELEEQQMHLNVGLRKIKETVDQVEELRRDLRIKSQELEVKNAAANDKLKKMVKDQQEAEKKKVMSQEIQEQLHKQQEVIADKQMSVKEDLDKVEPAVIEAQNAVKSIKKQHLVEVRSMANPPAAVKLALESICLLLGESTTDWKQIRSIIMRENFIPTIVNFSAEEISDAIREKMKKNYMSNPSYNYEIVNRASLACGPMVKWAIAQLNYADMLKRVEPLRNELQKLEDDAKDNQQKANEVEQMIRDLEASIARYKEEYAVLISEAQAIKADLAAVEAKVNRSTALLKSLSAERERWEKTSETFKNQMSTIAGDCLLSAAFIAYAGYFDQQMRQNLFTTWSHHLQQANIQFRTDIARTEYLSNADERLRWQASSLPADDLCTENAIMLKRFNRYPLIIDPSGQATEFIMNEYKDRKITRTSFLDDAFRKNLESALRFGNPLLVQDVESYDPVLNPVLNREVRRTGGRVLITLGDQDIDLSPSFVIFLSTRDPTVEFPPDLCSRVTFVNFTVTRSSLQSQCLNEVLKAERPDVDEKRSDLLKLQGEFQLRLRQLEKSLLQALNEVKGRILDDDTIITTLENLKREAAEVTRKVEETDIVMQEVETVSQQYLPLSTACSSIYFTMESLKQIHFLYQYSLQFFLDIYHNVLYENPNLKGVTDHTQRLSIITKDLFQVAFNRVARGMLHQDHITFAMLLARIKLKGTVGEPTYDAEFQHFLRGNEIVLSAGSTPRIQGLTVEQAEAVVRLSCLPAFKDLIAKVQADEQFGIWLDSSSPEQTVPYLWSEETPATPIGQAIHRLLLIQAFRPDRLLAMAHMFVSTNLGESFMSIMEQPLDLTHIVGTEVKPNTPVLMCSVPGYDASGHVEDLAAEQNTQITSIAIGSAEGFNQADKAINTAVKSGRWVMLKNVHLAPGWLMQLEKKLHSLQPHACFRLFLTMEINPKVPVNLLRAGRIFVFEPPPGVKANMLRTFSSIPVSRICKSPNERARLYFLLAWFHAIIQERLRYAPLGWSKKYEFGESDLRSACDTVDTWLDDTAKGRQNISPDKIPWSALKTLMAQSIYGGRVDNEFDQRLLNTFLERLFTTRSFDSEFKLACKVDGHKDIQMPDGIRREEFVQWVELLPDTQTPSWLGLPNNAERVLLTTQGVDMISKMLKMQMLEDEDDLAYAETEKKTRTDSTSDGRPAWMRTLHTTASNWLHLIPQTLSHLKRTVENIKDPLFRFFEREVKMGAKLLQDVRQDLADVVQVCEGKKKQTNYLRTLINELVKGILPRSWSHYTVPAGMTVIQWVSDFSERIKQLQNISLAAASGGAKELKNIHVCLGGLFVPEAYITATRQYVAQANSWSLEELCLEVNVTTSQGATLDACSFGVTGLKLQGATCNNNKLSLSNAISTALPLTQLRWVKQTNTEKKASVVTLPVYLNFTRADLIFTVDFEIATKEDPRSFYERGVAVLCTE

isoTOP-ABPP ratio, lysine Q13617_K489 (CUL2 Cullin-2; 50 uM_231_sol_in vitro): 0.8
isoTOP-ABPP ratio, lysine P62875_K67 ([1]; 50 uM_231_sol_in vitro): 0.9
isoTOP-ABPP ratio, lysine Q9Y5K5_K323 ([2]; 50 uM_231_sol_in vitro): 0.9
isoTOP-ABPP ratio, lysine Q01813_K688 ([3]; 50 uM_231_sol_in vitro): 1.4
Structure (SMILES): O=C(Oc1c(F)c(F)cc(F)c1F)c1cc(C(F)(F)F)cc(C(F)(F)F)c1 [fragment 48, 2,3,5,6-Tetrafluorophenyl 3,5-bis(trifluoromethyl)benzoate]

Structure (SMILES): O=C(Oc1ccc([N+](=O)[O-])cc1[N+](=O)[O-])C1CCN(C(=O)OCc2ccccc2)CC1 [fragment 34, 1-Benzyl 4-(2,4-dinitrophenyl) piperidine-1,4-dicarboxylate]
isoTOP-ABPP ratio (R) at liganded lysine Q13617_K489 (CUL2 Cullin-2): 1.1
isoTOP-ABPP ratio (R) at liganded lysine P62875_K67 [1]: 1.0
isoTOP-ABPP ratio (R) at liganded lysine Q9Y5K5_K323 [2]: 0.9
isoTOP-ABPP ratio (R) at liganded lysine Q01813_K688 [3]: 1.9

Structure (SMILES): O=C(CCc1cn(-c2ccccc2)nc1-c1ccccc1)Oc1ccc([N+](=O)[O-])cc1[N+](=O)[O-] [fragment 29, 2,4-Dinitrophenyl 3-(1,3-diphenyl-1H-pyrazol-4-yl)propanoate]
isoTOP-ABPP reactivity ratio at lysine Q14204_K1649 [4]: 1.1
isoTOP-ABPP reactivity ratio at lysine Q13617_K489 (CUL2 Cullin-2): 1.2
isoTOP-ABPP reactivity ratio at lysine Q9Y5K5_K323 [2]: 1.1
isoTOP-ABPP reactivity ratio at lysine Q01813_K688 [3]: 12.8

isoTOP-ABPP reactivity ratio at lysine Q13617_K489 (CUL2 Cullin-2): 0.9
isoTOP-ABPP reactivity ratio at lysine P62875_K67 [1]: 1.1
isoTOP-ABPP reactivity ratio at lysine Q9Y5K5_K323 [2]: 1.1
isoTOP-ABPP reactivity ratio at lysine Q01813_K688 [3]: 6.4
Structure (SMILES): O=C(CCc1coc2cc(F)ccc2c1=O)Oc1c(F)c(F)c(F)c(F)c1F [fragment 26, Pentafluorophenyl 3-(7-fluoro-4-oxo-4H-chromen-3-yl)propanoate]

Structure (SMILES): Cn1cc(CC(=O)Oc2ccc([N+](=O)[O-])cc2[N+](=O)[O-])c2ccccc21 [fragment 32, 2,4-Dinitrophenyl 2-(1-methyl-1H-indol-3-yl)acetate]
isoTOP-ABPP reactivity ratio at lysine Q14204_K1649 [4]: 1.2
isoTOP-ABPP reactivity ratio at lysine Q13617_K489 (CUL2 Cullin-2): 1.1
isoTOP-ABPP reactivity ratio at lysine Q9Y5K5_K323 [2]: 1.0
isoTOP-ABPP reactivity ratio at lysine Q01813_K688 [3]: 12.6

isoTOP-ABPP ratio, lysine Q13617_K489 (CUL2 Cullin-2; 100 uM_231_sol_in vitro): 1.1
isoTOP-ABPP ratio, lysine Q9Y5K5_K323 ([2]; 100 uM_231_sol_in vitro): 9.0
isoTOP-ABPP ratio, lysine Q01813_K688 ([3]; 100 uM_231_sol_in vitro): 9.6
Structure (SMILES): COC(=O)NC(=NC(=O)OCC1c2ccccc2-c2ccccc21)n1cccn1 [fragment 49, N-Methoxycarbonyl-N′-9-fluorenylmethoxycarbonyl-pyrazole-1-carboxamidine]

Structure (SMILES): O=C(CC12CC3CC(CC(C3)C1)C2)Oc1ccc([N+](=O)[O-])cc1[N+](=O)[O-] [fragment 38, 2,4-Dinitrophenyl 2-(adamantan-1-yl)acetate]
isoTOP-ABPP ratio (R) at liganded lysine Q14204_K1649 ([4]; sol, 231): 1.0
isoTOP-ABPP ratio (R) at liganded lysine Q13617_K489 (CUL2 Cullin-2): 1.4
isoTOP-ABPP ratio (R) at liganded lysine Q9Y5K5_K323 [2]: 0.9
isoTOP-ABPP ratio (R) at liganded lysine Q01813_K688 [3]: 4.1

Structure (SMILES): O=C(Oc1ccc([N+](=O)[O-])cc1[N+](=O)[O-])c1cc(C(F)(F)F)cc(C(F)(F)F)c1 [fragment 31, 2,4-Dinitrophenyl 3,5-bis(trifluoromethyl)benzoate]
isoTOP-ABPP reactivity ratio at lysine Q13617_K489 (CUL2 Cullin-2): 1.1
isoTOP-ABPP reactivity ratio at lysine P62875_K67 [1]: 0.9
isoTOP-ABPP reactivity ratio at lysine Q9Y5K5_K323 [2]: 1.0
isoTOP-ABPP reactivity ratio at lysine Q01813_K688 [3]: 2.3

Structure (SMILES): O=C(Oc1ccc([N+](=O)[O-])cc1[N+](=O)[O-])C(c1ccccc1)c1ccccc1 [fragment 30, 2,4-Dinitrophenyl 2,2-diphenylacetate]
isoTOP-ABPP reactivity ratio at lysine Q13617_K489 (CUL2 Cullin-2): 1.1
isoTOP-ABPP reactivity ratio at lysine P62875_K67 [1]: 1.8
isoTOP-ABPP reactivity ratio at lysine Q9Y5K5_K323 [2]: 1.1
isoTOP-ABPP reactivity ratio at lysine Q01813_K688 [3]: 20.0

Structure (SMILES): O=C(Oc1ccc([N+](=O)[O-])cc1[N+](=O)[O-])c1ccc(-c2ccccc2)cc1 [fragment 37, 2,4-Dinitrophenyl [1,1′-biphenyl]-4-carboxylate]
isoTOP-ABPP ratio (R) at liganded lysine Q13617_K489 (CUL2 Cullin-2): 1.0
isoTOP-ABPP ratio (R) at liganded lysine P62875_K67 [1]: 0.9
isoTOP-ABPP ratio (R) at liganded lysine Q9Y5K5_K323 [2]: 0.9
isoTOP-ABPP ratio (R) at liganded lysine Q01813_K688 [3]: 1.0

Structure (SMILES): COc1cc(CCC(=O)Oc2ccc([N+](=O)[O-])cc2[N+](=O)[O-])cc(OC)c1OC [fragment 33, 2,4-Dinitrophenyl 3-(3,4,5-trimethoxyphenyl)propanoate]
isoTOP-ABPP reactivity ratio at lysine Q14204_K1649 [4]: 1.1
isoTOP-ABPP reactivity ratio at lysine Q13617_K489 (CUL2 Cullin-2): 1.2
isoTOP-ABPP reactivity ratio at lysine Q9Y5K5_K323 [2]: 0.8
isoTOP-ABPP reactivity ratio at lysine Q01813_K688 [3]: 20.0

Source: US20210255193A1, “LYSINE REACTIVE PROBES AND USES THEREOF” (The Scripps Research Institute, priority 2017, published 2021)
